Test results from patent publication US12404249B2, “Heterocyclic derivatives and use thereof” (C&C RESEARCH LABORATORIES, priority 2018, dated 2025).

Columns and labels:
[1] = target: T1, STAT3 (Homo sapiens, UniProt P40763); assay: STAT3 activation inhibition assay (reporter gene assay, LNcaP stable cell line, IL-6 stimulated); type: cell-based; settings: LNcaP stable cell line [plasmid STAT3-TA-luc], IL-6 10 ng/mL, 48 hours, luciferase activity; read-out: IC50 (μM) pSTAT3
T1 construct: endogenous in cells; host or cells: LNCaP (human prostate cancer) stably carrying pSTAT3-TA-luc reporter plasmid
T1 sequence (P40763 whole entry): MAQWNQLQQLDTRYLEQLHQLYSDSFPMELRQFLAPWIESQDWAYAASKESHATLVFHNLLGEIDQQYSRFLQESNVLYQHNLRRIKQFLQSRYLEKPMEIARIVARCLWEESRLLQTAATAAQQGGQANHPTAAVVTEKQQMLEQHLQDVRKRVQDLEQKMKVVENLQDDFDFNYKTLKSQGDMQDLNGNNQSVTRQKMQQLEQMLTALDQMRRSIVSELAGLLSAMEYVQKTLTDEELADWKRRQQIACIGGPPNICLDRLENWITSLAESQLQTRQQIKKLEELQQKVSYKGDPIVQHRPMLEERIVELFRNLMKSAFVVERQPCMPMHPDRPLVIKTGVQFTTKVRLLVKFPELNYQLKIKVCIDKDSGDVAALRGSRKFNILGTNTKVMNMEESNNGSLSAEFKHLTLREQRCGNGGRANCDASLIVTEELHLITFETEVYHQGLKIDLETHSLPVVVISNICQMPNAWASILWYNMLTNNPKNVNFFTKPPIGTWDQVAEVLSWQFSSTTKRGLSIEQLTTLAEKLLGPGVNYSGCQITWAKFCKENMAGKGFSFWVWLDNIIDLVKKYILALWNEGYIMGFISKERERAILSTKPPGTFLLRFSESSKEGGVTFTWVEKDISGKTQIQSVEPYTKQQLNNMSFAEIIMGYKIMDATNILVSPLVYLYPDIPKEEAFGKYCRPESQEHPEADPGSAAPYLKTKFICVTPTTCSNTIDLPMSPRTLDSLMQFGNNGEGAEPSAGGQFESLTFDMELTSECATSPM
Experimental: Cancer cell lines used for evaluating the compounds of the Examples were purchased from ATCC (American Type Culture Collection) or KCLB (Korean Cell Line Bank), and cultured according to the vendor's recommendation. The human prostate cancer cell line stably expressing the STAT3 promoter (LNcaP stable cell line [plasmid STAT3-TA-luc])—which was prepared to evaluate the inhibitory effect of the compounds of the Examples against dimerization of STAT3—was cultured in RPMI1640 (Cat no. 11875, Gibco), 10% fetal bovine serum (Cat no. SH30071.03, Hyclone) and 150 μg/mL G418 solution (Cat no. 04 727 894 001, Roche).
The reporter gene assay of LNcap stable cell line was carried out by the use of RPMI 1640 medium containing 3% DCC-FBS (without G-418). The cell line was dispensed into two (2) white 96-well plates at 30,000 cells/well/50 μL. The cell line was incubated for 24 hours under the condition of 37° C. and 5% CO2, and then the Example compounds of 50 mM DMSO stock were diluted to various concentrations and treated to two (2) white 96-well plates containing cells. Then, IL-6 was treated to a final concentration of 10 ng/mL. After the treatment of Example compounds and IL-6, the cells were cultured for 48 hours under the condition of 37° C. and 5% CO2. After 48 hours, the 96-well plates were observed under a microscope to record the presence or absence of drug precipitation and specificities, and the 96-well plates were kept at room temperature for 30 minutes. Then, in the case of the first 96-well plate, the culture medium on the plate was removed to measure the luciferase activity, and treated with passive lysis buffer at 20 µL/well and shaken for 30 minutes. The luciferase activity was measured on microLUMA LB96P (BERTHOLD) or Centro XS LB 960 (BERTHOLD) instrument using Luciferase assay system (Cat No. E1501, Promega Corporation). In the case of the second 96-well plate, 20 μL of Glo-mix solution was added to measure cytotoxicity by the compounds of the Examples, and the plate was well shaken for 10 minutes and analyzed on microLUMA LB96P (BERTHOLD) instrument using Glo-vial protocol. As a negative control, a 96 well-plate in which culture medium was added but cells were not plated was used. As a positive control, a 96 well-plate in which cells were plated and 0.1% DMSO and culture medium containing stimulation were added was used.
The results of evaluating the inhibitory effects of the compounds of the Examples against dimerization of STAT3 and STAT1 via STAT3 and STAT1 reporter gene assay are represented in Table 1.

[2] = tested on: prostate cancer cell line (LNCap); assay: Cell growth inhibition assay (Celltiter Glo); type: cell-based; settings: Homo sapiens, LNCap cells, 120 hours incubation
Experimental: Cancer cell inhibitory effects by the compounds of the Examples were evaluated as follows. The prostate cancer cell line (LNCap) used was cultured under the condition according to the vendor's recommendation. LNCap was dispensed into a 96-well plate at 10,000 cells/well. After incubation under the condition of 37° C. and 5% CO2 for 24 hours, the Example compounds of 50 mM DMSO stock were diluted to various concentrations and treated to the 96-well plate containing cells. After treatment of the Example compounds, LNCap cells were incubated in an incubator (37° C., 5% CO2) for 120 hours. After each incubation time, the 96-well plate was observed under a microscope to record the presence or absence of drug precipitation and specificities, and the 96-well plate was kept at room temperature for 30 minutes. Then, after addition of 20 μL of Celltiter Glo solution, the 96-well plate was well shaken for 30 minutes. The growth inhibitory activity was measured on microLUMA LB96P (BERTHOLD) instrument using Glo-vial protocol. As a negative control, a 96 well-plate in which culture medium was added but cells were not plated was used. As a positive control, a 96 well-plate in which cells were plated and 0.1% DMSO instead of drugs was added was used. The results of growth inhibitory effects of the Example compounds on prostate cancer cell line are represented in Table 2.

SMILES	IC50 [1]	IC50 [2]
O=[N+]([O-])c1ccc(CCNc2cc(Cl)nc3cccc(F)c23)cc1 [Example 29, 2-chloro-5-fluoro-N-(4-nitrophenethyl)quinolin-4-amine]	0.64 µM	2.5 µM
NNC(=O)c1ccc2nc(Cl)cc(NCCc3ccc([N+](=O)[O-])cc3)c2c1 [Example 44, 2-chloro-4-((4-nitrophenethyl)amino)quinolin-6-carbohydrazide]	> 50 µM	> 50 µM
O=[N+]([O-])c1ccc(CCNc2cc(Cl)nc3ccc(O)cc23)cc1 [Example 35, 2-chloro-4-((4-nitrophenethyl)amino)quinolin-6-ol]	2.3 µM	7.3 µM
Nc1ccc(CCNc2cc(Cl)nc3ccccc23)cc1 [Example 6, N-(4-aminophenethyl)-2-chloroquinolin-4-amine]	0.71 µM	0.69 µM
NS(=O)(=O)c1ccc(CCN(CCc2ccccc2)c2cc(Cl)nc3ccccc23)cc1 [Example 4, 4-(2-((2-chloroquinolin-4-yl)(phenethyl)amino)ethyl)benzenesulfonamide]	20.9 µM	> 50 µM
O=[N+]([O-])c1ccc(CCNc2cncc3ccccc23)cc1 [Example 62, N-(4-nitrophenethyl)isoquinolin-4-amine]	12.1 µM	23.5 µM
O=[N+]([O-])c1ccc(CCNc2cc(Cl)nc3ccc(N4CCOCC4)cc23)cc1 [Example 28, 2-chloro-6-morpholino-N-(4-nitrophenethyl)quinolin-4-amine 2,2,2-trifluoroacetate]	32.3 µM	44.1 µM
CS(=O)(=O)Nc1ccc(CCNc2ncnc3sccc23)cc1 [Example 68, N-(4-(2-(thieno[2,3-d]pyrimidin-4-ylamino)ethyl)phenyl)methanesulfonamide]	0.076 µM	0.27 µM
CS(=O)(=O)Nc1ccc(CCNc2cc(Cl)nc3ccc(-c4ccc(Cl)cc4Cl)cc23)cc1 [Example 57, N-(4-(2-((2-chloro-6-(2,4-dichlorophenyl)quinolin-4-yl)amino)ethyl)phenyl)methanesulfonamide]	17.9 µM	8.6 µM
CS(=O)(=O)Nc1ccc(CNC(=O)c2cc(Cl)nc3ccccc23)cc1 [Example 58, 2-chloro-N-(4-(methylsulfonamido)benzyl)quinolin-4-carboxamide]	> 50 µM	> 50 µM
O=[N+]([O-])c1ccc(CCNc2cc(Cl)nc3cc(OC(F)(F)F)ccc23)cc1 [Example 12, 2-chloro-N-(4-nitrophenethyl)-7-(trifluoromethoxy)quinolin-4-amine]	5.8 µM	9.3 µM
O=C(c1ccccc1)c1ccc2nc(Cl)cc(NCCc3ccc([N+](=O)[O-])cc3)c2c1 [Example 34, (2-chloro-4-((4-nitrophenethyl)amino)quinolin-6-yl)(phenyl)methanone]	6.9 µM	15.7 µM
O=[N+]([O-])c1ccc(CCNc2cc(Cl)nc3cc(F)ccc23)cc1 [Example 30, 2-chloro-7-fluoro-N-(4-nitrophenethyl)quinolin-4-amine]	2.2 µM	7 µM
O=C(Cc1ccc([N+](=O)[O-])cc1)Nc1ncnc2ccccc12 [Example 65, 2-(4-nitrophenyl)-N-(quinazolin-4-yl)acetamide]	> 50 µM	> 50 µM
COc1ccc2nc(Cl)cc(NCCc3ccc([N+](=O)[O-])cc3)c2c1 [Example 9, 2-chloro-6-methoxy-N-(4-nitrophenethyl)quinolin-4-amine]	3 µM	7.7 µM
NS(=O)(=O)c1ccc(CCNc2cc(Cl)nc3ccccc23)cc1 [Example 3, 4-(2-((2-chloroquinolin-4-yl)amino)ethyl)benzenesulfonamide]	10.5 µM	5.1 µM

SMILES	IC50 [1]	IC50 [2]
CNc1cc(NCCc2ccc([N+](=O)[O-])cc2)c2ccccc2n1 [Example 51, N^2-methyl-N^4-(4-nitrophenethyl)quinolin-2,4-diamine 2,2,2-trifluoroacetate]	24.1 µM	27.7 µM
O=[N+]([O-])c1ccc(CCNc2cc(Cl)nc3ccc(Cl)cc23)cc1 [Example 32, 2,6-dichloro-N-(4-nitrophenethyl)quinolin-4-amine]	3.3 µM	33.8 µM
CS(=O)(=O)Nc1ccc(CCNc2ncc(Cl)c3ccccc23)cc1 [Example 74, N-(4-(2-((4-chloroisoquinolin-1-yl)amino)ethyl)phenyl)methanesulfonamide]	3.9 µM	13.1 µM
CS(=O)(=O)Nc1ccc(CCNc2cc(Cl)nc3c(F)cccc23)cc1 [Example 45, N-(4-(2-((2-chloro-8-fluoroquinolin-4-yl)amino)ethyl)phenyl)methanesulfonamide]	13.1 µM	13.1 µM
CS(=O)(=O)Nc1ccc(CCNc2cncc3ccccc23)cc1 [Example 63, N-(4-(2-(isoquinolin-4-ylamino)ethyl)phenyl)methanesulfonamide]	0.75 µM	1.9 µM
CCc1cccc2c(NCCc3ccc([N+](=O)[O-])cc3)cc(Cl)nc12 [Example 8, 2-chloro-8-ethyl-N-(4-nitrophenethyl)quinolin-4-amine]	7.8 µM	16 µM
NC(=O)c1ccc2nc(Cl)cc(NCCc3ccc([N+](=O)[O-])cc3)c2c1 [Example 41, 2-chloro-4-((4-nitrophenethyl)amino)quinolin-6-carboxamide]	9.8 µM	> 50 µM
O=[N+]([O-])c1ccc(CCNc2ncnc3ccc(-c4ccc(Cl)cc4Cl)cc23)cc1 [Example 54, 6-(2,4-dichlorophenyl)-N-(4-nitrophenethyl)quinazolin-4-amine]	11 µM	14.1 µM
O=[N+]([O-])c1ccc(CCNc2cc(Cl)nc3ccc(-c4ccc(Cl)cc4Cl)cc23)cc1 [Example 55, 2-chloro-6-(2,4-dichlorophenyl)-N-(4-nitrophenethyl)quinolin-4-amine]	> 50 µM	> 50 µM
O=[N+]([O-])c1ccc(CCNc2ncnc3ccccc23)cc1 [Example 36, N-(4-nitrophenethyl)quinazolin-4-amine]	0.023 µM	0.093 µM
O=C(c1ccc2nc(Cl)cc(NCCc3ccc([N+](=O)[O-])cc3)c2c1)N1CCOCC1 [Example 42, (2-chloro-4-((4-nitrophenethyl)amino)quinolin-6-yl)(morpholino)methanone]	> 50 µM	> 50 µM
CS(=O)(=O)Nc1ccc(CCNc2ccnc3c(F)cccc23)cc1 [Example 46, N-(4-(2-((8-fluoroquinolin-4-yl)amino)ethyl)phenyl)methanesulfonamide]	33.7 µM	18.9 µM
CS(=O)(=O)Nc1ccc(CCNc2cc(Cl)nc3cccc(OC(F)(F)F)c23)cc1 [Example 26, N-(4-(2-((2-chloro-5-(trifluoromethoxy)quinolin-4-yl)amino)ethyl)phenyl)methanesulfonamide]	0.15 µM	0.23 µM
O=[N+]([O-])c1ccc(CCNc2cc(C(F)(F)F)nc3ccccc23)cc1 [Example 49, N-(4-nitrophenethyl)-2-(trifluoromethyl)quinolin-4-amine]	5.6 µM	14.1 µM
O=S(=O)(Nc1ccc(CCNc2ncnc3ccccc23)cc1)C(F)(F)F [Example 60, 1,1,1-trifluoro-N-(4-(2-(quinazolin-4-ylamino)ethyl)phenyl)methanesulfonamide]	14 µM	29.5 µM
